Read-outs that look alike come from different tables or passages of the source.
Legend:
[1] = Lucigenin assay of Cl− transport in vesicles; format: biochemical; settings: 100 µM compound, interior NaNO3 200 mM, exterior NaCl (2 M), 25°C, first-order curve fit
Experimental: To confirm that chloride could pass through the bilayers, lucigenin assays[5a] were performed for 2, Cu(II)[1]Cl2 and Cu(II)[2]Cl2 (Fig. 5 and ESI, Fig. S10 ^†). The same lipids were used as for the HPTS assays and lucigenin was encapsulated with NaNO3 in the vesicles.
Figure S9: Ionophoric activity determined through an HPTS assay in the presence of NaCl (100 mM) for: 2 (10 µM) in the absence (pink inverted triangles) and presence of FCCP (20 µM, blue triangles) and Cu(II)[2]Cl2 (6 µM) in the absence (red circles) and presence of FCCP (20 µM, black squares). Base pulse at 1 min, TX-100 added at 7 min.
5.4 Preparation of large unilamellar vesicles for lucigenin assays […]
Lucigenin assays procedure and fluorescence normalisation were developed by a modification of published methods.10 An aliquot of the vesicle stock solution (100 μL) w as diluted to 1.9 mL with 200 mM NaNO 3 in water (pH = 7.4) (final lipid co ncentration in cuvette 0.762 mM). […] The cuvette was then placed into a Varian Cary Eclipse fluorescence spectrophotometer in the moderate stirring mode. The fluorescence emission at 505 nm was observed, resulting from excitation at 455 nm, over a period of seven minutes (420 seconds) at 25°C. […] The change in fluorescence was followed for six minutes before final lysis of the vesicles at seven minutes (420 s) by adding an aliquot of a 10 % v/v solution of Triton X-100 […]

[2] = system: B. megaterium strain DSM319; test: Antimicrobial assay: minimum inhibitory concentration (MIC); format: cell-based; settings: B. megaterium strain DSM319, LB broth, about 3 × 10^6 CFU/mL, 30 °C overnight, OD 600 nm, compound in DMSO, three biological repeats with three technical repeats
Experimental: The antibiotic activities of 1, 2, Cu(II)[1]Cl2 and Cu(II)[2]Cl2 were measured against B. megaterium strain DSM319 (see the ESI ^†).
Metal ion chelating Aib foldamers 1 and 2 bear a novel amino-terminal copper and nickel (ATCUN) binding motif; other ATCUN motifs are reported to increase antibiotic properties by generating reactive oxygen species upon metal binding.24 Furthermore many copper-containing metallodrugs have been stu died for their anticancer25 and antibiotic properties.26 Introducing the Cu(II)(BPTA) group onto the Aib octamer unit […]
antibiotic studies of long Aib n oligomers (n ≥ 10).15
7.1 Antimicrobial assays: minimum inhibitory concentrations (MIC)
The used procedure was developed by modification of published methods.27 The antimicrobial activity of the appropriate compound was tested against B. megaterium strain DSM319. Bacteria were grown over night at 30 °C in standard lysogeny broth (LB) broth from a single colony overnight. An aliquot from this suspension was taken and diluted (1:100) in fresh LB broth until the suspension reached the mid - logarithmic phase (OD600 = 0.4). […]
The plates were shaken for about 30 seconds and the optical density (OD) was measured at 600 nm.
Afterwards the plates were incubated at 30 °C under aerobic conditions with shaking overnight. The absorbance was then measured at 600 nm using a ClarioStar plate reader. […]

human erythrocytes [3] = test: Haemolysis assay; format: cell-based; settings: fresh blood diluted with PBS (1:2), compound in DMSO, 37 °C for 30 min, triplicates, read-out: EC50 for haemolysis (haemoglobin release)
[4] = cited from earlier work
Text: Application of Hille's equation[47] to estimate the inner channel diameters for both Cu(II)[2]Cl2 and Cu(II)[2]Cl·HCO3 provided approximate pore diameters of 1.5 nm, 2.1 nm and 2.3 nm for the different conductance levels (see the ESI ^†). […] Planar bilayer conductance (PBC) studies Alamethicin provides a useful comparison to the data reported in the manuscript and in the ESI.

human erythrocytes [5] = settings: in phosphate buffer after 1 h incubation; read-out: reported EC50 for haemolysis; cited from earlier work
Text: Although alamethicin is a very active channel former, its use in the clinic is hampered by its high haemolytic activity.[52]

Question: Which “kobs of Cl− transport (lucigenin assay)” value [1] does the source give for alamethicin here?
Answer: Its value is 0.0073 s⁻¹.

Question: And the “MIC, minimum inhibitory concentration” value [2]?
Answer: The value was 6 ± 2 µM.

Question: And the EC50 (human erythrocytes [3])?
Answer: Its EC50 is 1400 nM.

Question: And the “proposed pore diameter, hexameric pores” value [4]?
Answer: The value was 1.1 nm.

Question: And the “proposed pore diameter, octameric pores” value [4]?
Answer: Its value is 1.8 nm.

Question: And the EC50 (human erythrocytes [5])?
Answer: Its EC50 is 1450 nM.
